The record followed here is patent US20050245399A1, “Pyrazole derivatives as herbicidal compositions containing them” (ISHIHARA SANGYO KAISHA, LTD., priority 2004, published 2005).

The subject of the first experiment is crabgrass (Digitaria sanguinalis L.): DIGSA. Nature of the experiment: Test Example 1 pre-emergence herbicidal activity, DIGSA. The class given is in vivo. The following applies: Rate 63 g a.i./ha, visually observed 20th to 23rd day after application. In a few lines:
(§1)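 Percent growth control, rated visually 20–23 d after a pre-emergence spray applied 1 d post-sowing; compound formulated as WP or EC in 500 L/ha water at a predetermined a.i. amount.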
As for `CCOC(=O)C(C)Nc1c(OC)c(Cl)cc(F)c1-c1nn(C)c(OC(F)F)c1Cl` (stereo not shown) [Compound 1-76], the “Pre-emergence Herbicidal Activity DIGSP (growth controlling degree)” value came out at 100%.

A further experiment concerns rice (Oryza sativa L.): ORYSA. Nature of the experiment: Test Example 1 pre-emergence herbicidal activity, ORYSA. In kind it is in vivo. The following applies: Rate 63 g a.i./ha, visually observed 20th to 23rd day after application. In a few lines: as §1
With `CCOC(=O)C(C)Nc1c(OC)c(Cl)cc(F)c1-c1nn(C)c(OC(F)F)c1Cl` (stereo not shown) [Compound 1-76], the “Pre-emergence Herbicidal Activity ORYSA (growth controlling degree)” value was determined as 10%.

Another experiment relates to velvetleaf (Abutilon theophrasti), ABUTH. Put plainly: Test Example 2 post-emergence (foliage treatment) herbicidal activity, ABUTH. In kind it is in vivo. The following applies: 63 g a.i./ha. In a few lines: (§2)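 A small sprayer delivered the diluted WP or EC formulation (500 L/ha water, 0.1% v/v spreader) over emerged seedlings in upland soil pots. Damage relative to untreated plants was graded visually from 0 to 100% three weeks or so later (days 20-23).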
For the compound `CCOC(=O)C(C)Nc1c(OC)c(Cl)cc(F)c1-c1nn(C)c(OC(F)F)c1Cl` (stereo not shown) [Compound 1-76], the “growth controlling degree, ABUTH” value is listed as 100%.

The next experiment has as its system corn (Zea mays L.), ZEAMX. Put plainly: Test Example 2 post-emergence (foliage treatment) herbicidal activity, ZEAMX. The class given is in vivo. The note with it: 63 g a.i./ha. In a few lines:
as §2
In the case of `CCOC(=O)C(C)Nc1c(OC)c(Cl)cc(F)c1-c1nn(C)c(OC(F)F)c1Cl` (stereo not shown) [Compound 1-76], the “growth controlling degree, ZEAMX” value stood at 90%.

The subject of a further experiment is wheat (Triticum aestivum L.), TRZAX. Put plainly: Test Example 2 post-emergence (foliage treatment) herbicidal activity, TRZAX. The class given is in vivo. The following applies: 63 g a.i./ha. The procedure, abridged: as §2
Turning to `CCOC(=O)C(C)Nc1c(OC)c(Cl)cc(F)c1-c1nn(C)c(OC(F)F)c1Cl` (stereo not shown) [Compound 1-76], the “growth controlling degree, TRZAX” value is on record as 40%.

The subject of a further experiment is prickly sida (Sida spinosa L.): SEDSP. Put plainly: Test Example 1 pre-emergence herbicidal activity, SIDSP. In kind it is in vivo. The following applies: Rate 63 g a.i./ha, visually observed 20th to 23rd day after application. In a few lines: as §1
Consider `CCOC(=O)C(C)Nc1c(OC)c(Cl)cc(F)c1-c1nn(C)c(OC(F)F)c1Cl` (stereo not shown) [Compound 1-76], for which the “Pre-emergence Herbicidal Activity SIDSP (growth controlling degree)” value stood at 60%.

The subject of another experiment is soybean (Glycine max Merr.), GLXMA. Nature of the experiment: Test Example 2 post-emergence (foliage treatment) herbicidal activity, GLXMA. In kind it is in vivo. The note with it: 63 g a.i./ha. The procedure, abridged: as §2
Regarding `CCOC(=O)C(C)Nc1c(OC)c(Cl)cc(F)c1-c1nn(C)c(OC(F)F)c1Cl` (stereo not shown) [Compound 1-76], the “growth controlling degree, GLXMA” value turned out to be 70%.

The next experiment concerns redroot pigweed (Amaranthus retroflexus L.), AMARE. Put plainly: Test Example 2 post-emergence (foliage treatment) herbicidal activity, AMARE. The class given is in vivo. The following applies: 63 g a.i./ha. An excerpt: Upland field soil was put into a 1/170,000 ha pot, and seeds of various plants were sown. Then, when the plants reached predetermined leaf stages {1. barnyardgrass (Echinochloa crus-galli L.), ECHCG: 1.1-2.1 leaf stage, 2. crabgrass (Digitaria sanguinalis L.), DIGSA: 1.0-2.0 leaf stage, 3. green foxtail (Setaria viridis L.), SETVI: 1.0-2.2 leaf stage, 4. redroot pigweed (Amaranthus retroflexus L.), AMARE: 0.1-1.5 leaf stage, 5. prickly sida (Sida spinosa L.), SIDSP: 0.1-0.6 leaf stage, 6. velvetleaf (Abutilon theophrasti), ABUTH: 0.1-0.6 leaf stage, 7. common cocklebur (Xanthium strumarium L.), XANST: 0.1 leaf stage, 8. rice (Oryza sativa L.), ORYSA; 1.0-2 leaf stage, 9. wheat (Triticum aestivum L.), TRZAX: 2.3-3.5 leaf stage, 10. corn (Zea mays L.), ZEAMXN 2.1-2.6 leaf stage, 11. soybean (Glycine max Merr.), GLXMA: primary leaf stage}, a wettable powder or emulsifiable concentrate having the compound of the present invention formulated in accordance with a usual formulation method, was weighed so that the active ingredient would be a predetermined amount, and diluted with water in an amount of 500 L/ha. To the diluted solution, 0.1% (v/v) of an agricultural spreader was added. The herbicide adjusted was applied by a small size sprayer for foliage treatment. On the 20th to 23rd day after the application of the herbicide, the growth of the respective plants was visually observed, and the herbicidal effects were evaluated by growth controlling degrees (%) ranging from 0 (equivalent to the untreated control) to 100 (complete kill), whereby the results shown in Table 5, were obtained. Compound Nos. in Table 5 correspond to Compound Nos. in Table 1 and 2 given hereinbefore.
Turning to `CCOC(=O)C(C)Nc1c(OC)c(Cl)cc(F)c1-c1nn(C)c(OC(F)F)c1Cl` (stereo not shown) [Compound 1-76], the “growth controlling degree, AMARE” value was 100%.

Another experiment concerns rice (Oryza sativa L.), ORYSA. Nature of the experiment: Test Example 2 post-emergence (foliage treatment) herbicidal activity, ORYSA. In kind it is in vivo. The note with it: 63 g a.i./ha. The procedure, abridged:
(§3)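 Each species was evaluated for growth suppression by eye, 0% matching untreated and 100% meaning death, some 20 to 23 days after a single post-emergence foliar treatment applied in 500 L/ha of water carrying 0.1% (v/v) agricultural spreader.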
Regarding `CCOC(=O)C(C)Nc1c(OC)c(Cl)cc(F)c1-c1nn(C)c(OC(F)F)c1Cl` (stereo not shown) [Compound 1-76], the “growth controlling degree, ORYSA” value came out at 80%.

For another experiment, the system named is barnyardgrass (Echinochloa crus-galli L.), ECHCG. Put plainly: Test Example 2 post-emergence (foliage treatment) herbicidal activity, ECHCG. The class given is in vivo. The following applies: 63 g a.i./ha. The procedure, abridged: as §3
Take `CCOC(=O)C(C)Nc1c(OC)c(Cl)cc(F)c1-c1nn(C)c(OC(F)F)c1Cl` (stereo not shown) [Compound 1-76]: the “growth controlling degree, ECHCO” value came out at 100%.

Another experiment relates to barnyardgrass (Echinochloa crus-galli L.): ECHCG. Nature of the experiment: Test Example 1 pre-emergence herbicidal activity, ECHCG. The note with it: Rate 63 g a.i./ha, visually observed 20th to 23rd day after application. The class given is in vivo. In a few lines:
as §1
On to `CCOC(=O)C(C)Nc1c(OC)c(Cl)cc(F)c1-c1nn(C)c(OC(F)F)c1Cl` (stereo not shown) [Compound 1-76], for which the “Pre-emergence Herbicidal Activity ECHCG (growth controlling degree)” value is on record as 60%.

A further experiment relates to redroot pigweed (Amaranthus retroflexus L.): AMARE. Put plainly: Test Example 1 pre-emergence herbicidal activity, AMARE. The note with it: Rate 63 g a.i./ha, visually observed 20th to 23rd day after application. The class given is in vivo. The procedure, abridged:
as §1
Turning to `CCOC(=O)C(C)Nc1c(OC)c(Cl)cc(F)c1-c1nn(C)c(OC(F)F)c1Cl` (stereo not shown) [Compound 1-76], the “Pre-emergence Herbicidal Activity AMARE (growth controlling degree)” value is recorded as 100%.

The subject of a further experiment is corn (Zea mays L.): ZEAMX. Nature of the experiment: Test Example 1 pre-emergence herbicidal activity, ZEAMX. The class given is in vivo. The note with it: Rate 63 g a.i./ha, visually observed 20th to 23rd day after application. In a few lines:
as §1
For the compound `CCOC(=O)C(C)Nc1c(OC)c(Cl)cc(F)c1-c1nn(C)c(OC(F)F)c1Cl` (stereo not shown) [Compound 1-76], the “Pre-emergence Herbicidal Activity ZEAMX (growth controlling degree)” value is 0%.

The subject of a further experiment is wheat (Triticum aestivum L.): TRZAX. Put plainly: Test Example 1 pre-emergence herbicidal activity, TRZAX. In kind it is in vivo. The note with it: Rate 63 g a.i./ha, visually observed 20th to 23rd day after application. The procedure, abridged: as §1
Take `CCOC(=O)C(C)Nc1c(OC)c(Cl)cc(F)c1-c1nn(C)c(OC(F)F)c1Cl` (stereo not shown) [Compound 1-76]: the “Pre-emergence Herbicidal Activity TRZAX (growth controlling degree)” value stood at 0%.

A further experiment has as its system crabgrass (Digitaria sanguinalis L.), DIGSA. Put plainly: Test Example 2 post-emergence (foliage treatment) herbicidal activity, DIGSA. In kind it is in vivo. The note with it: 63 g a.i./ha. In a few lines:
as §3
As to `CCOC(=O)C(C)Nc1c(OC)c(Cl)cc(F)c1-c1nn(C)c(OC(F)F)c1Cl` (stereo not shown) [Compound 1-76], the “growth controlling degree, DIGSP” value worked out at 70%.

The next experiment concerns green foxtail (Setaria viridis L.): SETVI. Put plainly: Test Example 1 pre-emergence herbicidal activity, SETVI. In kind it is in vivo. The following applies: Rate 63 g a.i./ha, visually observed 20th to 23rd day after application. In a few lines:
as §1
Take `CCOC(=O)C(C)Nc1c(OC)c(Cl)cc(F)c1-c1nn(C)c(OC(F)F)c1Cl` (stereo not shown) [Compound 1-76]: the “Pre-emergence Herbicidal Activity SETVI (growth controlling degree)” value came to 60%.

In another experiment the test system is velvetleaf (Abutilon theophrasti): ABUTH. Put plainly: Test Example 1 pre-emergence herbicidal activity, ABUTH. The following applies: Rate 63 g a.i./ha, visually observed 20th to 23rd day after application. The class given is in vivo. In a few lines: as §1
Regarding `CCOC(=O)C(C)Nc1c(OC)c(Cl)cc(F)c1-c1nn(C)c(OC(F)F)c1Cl` (stereo not shown) [Compound 1-76], the “Pre-emergence Herbicidal Activity ABUTH (growth controlling degree)” value is recorded as 40%.

The test system of a further experiment is soybean (Glycine max Merr.): GLXMA. Nature of the experiment: Test Example 1 pre-emergence herbicidal activity, GLXMA. In kind it is in vivo. The following applies: Rate 63 g a.i./ha, visually observed 20th to 23rd day after application. In a few lines:
as §1
For the compound `CCOC(=O)C(C)Nc1c(OC)c(Cl)cc(F)c1-c1nn(C)c(OC(F)F)c1Cl` (stereo not shown) [Compound 1-76], the “Pre-emergence Herbicidal Activity GLXMA (growth controlling degree)” value amounted to 0%.

Another experiment deals with green foxtail (Setaria viridis L.), SETVI. Nature of the experiment: Test Example 2 post-emergence (foliage treatment) herbicidal activity, SETVI. The note with it: 63 g a.i./ha. The class given is in vivo. In a few lines: as §2
`CCOC(=O)C(C)Nc1c(OC)c(Cl)cc(F)c1-c1nn(C)c(OC(F)F)c1Cl` (stereo not shown) [Compound 1-76]: the “growth controlling degree, SETVI” value turned out to be 80%.
